Results: paper PMC4607639 (Bioorganic & medicinal chemistry letters, 2015)

Columns and labels:
[1] = Aqueous solubility, shake-flask procedure; format: physicochemical; settings: for fold less soluble than the corresponding triazines: pyrimidines 7d, 8c versus triazines 7g, 8f
MT-2 human T-cells = test: Cytotoxicity, inhibition of MT-2 cell growth; format: cell-based; settings: inhibition of MT-2 cell growth by 50%

fold less soluble than the corresponding triazines [1]	Structure (SMILES)	further results
2-4 fold	Cc1cn2cc(C#N)cc2c(C)c1Nc1ccnc(Nc2ccc(C#N)cc2)n1 [Compound 7d]	–
2-4 fold	Cc1cc2cc(C#N)ccc2c(C)c1Nc1ccnc(Nc2ccc(C#N)cc2)n1 [Compound 8c]	–
–	Cc1cc2cc(C#N)ccc2c(C)c1Nc1ncnc(Nc2ccc(C#N)cc2)n1 [Compound 8f]	solubility fold greater than for rilpivirine ([1]; versus rilpivirine): ca. 1000 fold
–	N#Cc1ccc(Nc2ncnc(Nc3c(F)cc4cc(C#N)ccc4c3F)n2)cc1 [Compound 8h]	CC50 (MT-2 human T-cells): no cytotoxicity
